Literature values as cited in paper PMC12042267, “Expanding the Family of Monosubstituted 15-Membered Pyridine-Based Macrocyclic Ligands for Mn(II) Complexation in the Context of MRI” (Inorganic Chemistry, 2025).
Read-outs that look alike come from different tables or passages of the source.

How the values were obtained:
[1] = cited from earlier work
[2] = cited from earlier work; remark: listed apart in the source
[3] = cited from earlier work; for r1 (relaxivity): 20 MHz, 0.47 T ref 28
[4] = Mn(II) complex, cited from earlier work
[5] = Ca(II), cited from earlier work
[6] = Cu(II), cited from earlier work
[7] = cited from earlier work; for log KHML: 0.1 M NMe4Cl, log KMnHL in Table 5 ref 20
[8] = cited from earlier work; remark: listed apart in the source
[9] = Zn(II), cited from earlier work
[10] = Mn(II) complex, cited from earlier work; remark: listed apart in the source
[11] = 0.15 NaCl and 2 mM concentration ref 21, 58
[12] = pH 7.4, cMn = clig = 10^–5 M ref 20

## O.O=C([O-])CN1CCNCCN(CC(=O)[O-])Cc2cccc(n2)C1.[Mn+2] [Mn(3,9-PC2A)]
[1]
  kex^298: 12.6 ± 1.2 10^7 s^–1
  ΔH^‡: 37.5 ± 2.4 kJ mol^–1
[2]; [11]
  Eox: +838 mV
[3]; 298 K and 0.47 T ref 21
  r1p298: 2.91 mM^–1 s^–1

## O.O.[Mn+2].c1cc2nc(c1)CNCCOCCOCCNC2 [Mn(15-pyN3O2)]
[1]
  AO/ℏ: 38.6 10^6 rad s^–1
  ErH: 16.1 kJ mol^–1
  kex^298: 0.38 10^7 s^–1
  ΔH^‡: 35.3 kJ mol^–1
  ΔS^‡: –1.0 J mol^–1K^–1
  Δ^2: 6.6 10^18 s^–2
  τrH^298: 40.3 ps
  τv^298: 3.3 ps
[2]
  Eox: 912 mV
[3]; 25 °C
  r1 (relaxivity): 4.48 mM^–1 s^–1
[3]; 37 °C
  r1 (relaxivity): 3.61 mM^–1 s^–1

## O=C(O)CN1CCNCc2cccc(n2)CNCC1 [PC1A]
[4]; Zn(II) transmetalation ref 20
  k1: 2020 ± 40 M^–1 s^–1
  k2: (8.0 ± 0.3) × 10^7 M^–2 s^–1
[4]; calculated for pH 7.4, Zn(II) ref 20
  dissociation half-life t1/2: 2.4 h
[5]; 0.1 M NMe4Cl ref 20
  log KHML: 7.39
  log KML: 6.04
[6]; 0.1 M NMe4Cl ref 20
  log KHML: 2.09
  log KML: 18.62
[7]; Mn(II), 0.1 M NMe4Cl ref 20
  log KML: 11.54
[7]; Mn(II)
  log KHML: 4.95
[7]; [12]
  pMn: 8.10
[8]; 0.1 M NMe4Cl ref 20
  log K1^H: 10.47
  log K2^H: 8.71
  log K3^H: 2.79
[9]; 0.1 M NMe4Cl ref 20
  log KHML: 3.03
  log KML: 17.01

## O=P(O)(O)CN1CCNCc2cccc(n2)CNCC1 [PC1P]
[5]; 0.1 M NMe4Cl ref 20
  log KML: 6.85
[6]; 0.1 M NMe4Cl ref 20
  log KHML: 4.89
  log KML: 22.63
[7]; Mn(II), 0.1 M NMe4Cl ref 20
  log KML: 14.06
  log KML(OH): -11.97
[7]; Mn(II)
  log KHML: 5.35
[7]; [12]
  pMn: 8.30
[8]; 0.1 M NMe4Cl ref 20
  log K1^H: 11.84
  log K2^H: 9.64
  log K3^H: 6.23
  log K4^H: 0.99
[9]; 0.1 M NMe4Cl ref 20
  log KHML: 5.19
  log KML: 19.66
  log KML(OH): 12.33

## O=C(O)CN1CCN(Cc2ccc(-c3ccccc3)cc2)CCN(CC(=O)O)Cc2cccc(n2)C1 [PC2A-BP]
[10]; Cu(II) transmetalation ref 23
  k1: 16.9 ± 0.2 M^–1 s^–1
[10]; calculated for pH 7.4, Cu(II) ref 23
  dissociation half-life t1/2: 286.2 h
[5]; I = 0.15 M NaCl, 25 °C ref 23
  log KML: 7.94
[6]; I = 0.15 M NaCl, 25 °C ref 23
  log KHML: 1.04
  log KML: 22.30
[7]; Mn(II), I = 0.15 M NaCl, 25 °C ref 23
  log KML: 14.86
[7]; pH 7.4, cMn = clig = 10^–5 M ref 23
  pMn: 8.35
[8]; I = 0.15 M NaCl, 25 °C ref 23
  log K1^H: 10.45
  log K2^H: 6.93
  log K3^H: 2.36
  log K4^H: 1.64
[9]; I = 0.15 M NaCl, 25 °C ref 23
  log KHML: 1.71
  log KML: 18.05

## Mn(EDTA)
[2]; [11]
  Eox: +769 mV
